Laboratory results as given in PubChem BioAssay (NCI).
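Method: 48-hour compound exposure of cells in 96-well plates, five concentrations, linear interpolation of endpoints. The concentration for full growth arrest is given as TGI.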

These molecules were tested on SF-268 CNS (assay: NCI tumour cell line growth inhibition, 48 h).

SMILES	TGI [µM]
CCN(CC)CCn1ncc2c3c(=O)c4cccnc4n(CCN(CC)CC)c3ccc21	> 10
COC(=O)[C@@H]1C[C@@]23CCCN4CC[C@@]5(c6cccc(OC)c6N(C=O)[C@]15CC2)[C@@H]43	> 100

These molecules were tested on A498 renal (assay: NCI tumour cell line growth inhibition, 48 h).

SMILES	TGI [µM]
NCCCCCCn1c(-c2ccc(Br)cc2)csc1=Nc1ccccc1	33.6
CCc1c(-c2ccc(OC)cc2)c(=O)oc2cc(O)ccc12	98.7
COc1ccc2c(c1)[C@@H]1c3cc(OC)c(OC)cc3CCN1CCC2	> 100
CCN(CC)CCn1ncc2c3c(=O)c4cccnc4n(CCN(CC)CC)c3ccc21	> 10
COC(=O)[C@@H]1C[C@@]23CCCN4CC[C@@]5(c6cccc(OC)c6N(C=O)[C@]15CC2)[C@@H]43	> 100

Each molecule was assayed on SN12C renal (assay: NCI tumour cell line growth inhibition, 48 h).

SMILES	TGI [µM]
NCCCCCCn1c(-c2ccc(Br)cc2)csc1=Nc1ccccc1	26.5
CCc1c(-c2ccc(OC)cc2)c(=O)oc2cc(O)ccc12	> 100
COc1ccc2c(c1)[C@@H]1c3cc(OC)c(OC)cc3CCN1CCC2	> 100
CCN(CC)CCn1ncc2c3c(=O)c4cccnc4n(CCN(CC)CC)c3ccc21	> 10
COC(=O)[C@@H]1C[C@@]23CCCN4CC[C@@]5(c6cccc(OC)c6N(C=O)[C@]15CC2)[C@@H]43	> 100

Each molecule was assayed on RXF 393 renal (assay: NCI tumour cell line growth inhibition, 48 h).

SMILES	TGI [µM]
NCCCCCCn1c(-c2ccc(Br)cc2)csc1=Nc1ccccc1	26.2
CCc1c(-c2ccc(OC)cc2)c(=O)oc2cc(O)ccc12	> 100
COc1ccc2c(c1)[C@@H]1c3cc(OC)c(OC)cc3CCN1CCC2	> 100
CCN(CC)CCn1ncc2c3c(=O)c4cccnc4n(CCN(CC)CC)c3ccc21	> 10
COC(=O)[C@@H]1C[C@@]23CCCN4CC[C@@]5(c6cccc(OC)c6N(C=O)[C@]15CC2)[C@@H]43	> 100

What follows are molecules tested on HCT-15 colon (assay: NCI tumour cell line growth inhibition, 48 h).

SMILES	TGI [µM]
NCCCCCCn1c(-c2ccc(Br)cc2)csc1=Nc1ccccc1	22.1
CCc1c(-c2ccc(OC)cc2)c(=O)oc2cc(O)ccc12	> 100
COc1ccc2c(c1)[C@@H]1c3cc(OC)c(OC)cc3CCN1CCC2	> 100
CCN(CC)CCn1ncc2c3c(=O)c4cccnc4n(CCN(CC)CC)c3ccc21	> 10
COC(=O)[C@@H]1C[C@@]23CCCN4CC[C@@]5(c6cccc(OC)c6N(C=O)[C@]15CC2)[C@@H]43	> 100

What follows are molecules tested on SR leukemia (assay: NCI tumour cell line growth inhibition, 48 h).

SMILES	TGI [µM]
NCCCCCCn1c(-c2ccc(Br)cc2)csc1=Nc1ccccc1	11.3
CCc1c(-c2ccc(OC)cc2)c(=O)oc2cc(O)ccc12	58.4
COc1ccc2c(c1)[C@@H]1c3cc(OC)c(OC)cc3CCN1CCC2	> 100
CCN(CC)CCn1ncc2c3c(=O)c4cccnc4n(CCN(CC)CC)c3ccc21	> 10
COC(=O)[C@@H]1C[C@@]23CCCN4CC[C@@]5(c6cccc(OC)c6N(C=O)[C@]15CC2)[C@@H]43	> 100

Each molecule was assayed on MDA-N (assay: NCI tumour cell line growth inhibition, 48 h).

SMILES	TGI [µM]
NCCCCCCn1c(-c2ccc(Br)cc2)csc1=Nc1ccccc1	19.7
CCc1c(-c2ccc(OC)cc2)c(=O)oc2cc(O)ccc12	> 100
COc1ccc2c(c1)[C@@H]1c3cc(OC)c(OC)cc3CCN1CCC2	> 100
CCN(CC)CCn1ncc2c3c(=O)c4cccnc4n(CCN(CC)CC)c3ccc21	> 10
COC(=O)[C@@H]1C[C@@]23CCCN4CC[C@@]5(c6cccc(OC)c6N(C=O)[C@]15CC2)[C@@H]43	> 100

The molecules below were run on UACC-62 melanoma (assay: NCI tumour cell line growth inhibition, 48 h).

SMILES	TGI [µM]
NCCCCCCn1c(-c2ccc(Br)cc2)csc1=Nc1ccccc1	32.1
CCc1c(-c2ccc(OC)cc2)c(=O)oc2cc(O)ccc12	> 100
COc1ccc2c(c1)[C@@H]1c3cc(OC)c(OC)cc3CCN1CCC2	> 100
CCN(CC)CCn1ncc2c3c(=O)c4cccnc4n(CCN(CC)CC)c3ccc21	> 10
COC(=O)[C@@H]1C[C@@]23CCCN4CC[C@@]5(c6cccc(OC)c6N(C=O)[C@]15CC2)[C@@H]43	> 100

These molecules were tested on UACC-257 melanoma (assay: NCI tumour cell line growth inhibition, 48 h).

SMILES	TGI [µM]
NCCCCCCn1c(-c2ccc(Br)cc2)csc1=Nc1ccccc1	29.6
CCc1c(-c2ccc(OC)cc2)c(=O)oc2cc(O)ccc12	61.3
COc1ccc2c(c1)[C@@H]1c3cc(OC)c(OC)cc3CCN1CCC2	> 100
CCN(CC)CCn1ncc2c3c(=O)c4cccnc4n(CCN(CC)CC)c3ccc21	> 10
COC(=O)[C@@H]1C[C@@]23CCCN4CC[C@@]5(c6cccc(OC)c6N(C=O)[C@]15CC2)[C@@H]43	> 100

Each molecule was assayed on MCF7 breast (assay: NCI tumour cell line growth inhibition, 48 h).

SMILES	TGI [µM]
NCCCCCCn1c(-c2ccc(Br)cc2)csc1=Nc1ccccc1	17.4
CCc1c(-c2ccc(OC)cc2)c(=O)oc2cc(O)ccc12	> 100
COc1ccc2c(c1)[C@@H]1c3cc(OC)c(OC)cc3CCN1CCC2	> 100
CCN(CC)CCn1ncc2c3c(=O)c4cccnc4n(CCN(CC)CC)c3ccc21	> 10
COC(=O)[C@@H]1C[C@@]23CCCN4CC[C@@]5(c6cccc(OC)c6N(C=O)[C@]15CC2)[C@@H]43	> 100

What follows are molecules tested on K-562 leukemia (assay: NCI tumour cell line growth inhibition, 48 h).

SMILES	TGI [µM]
NCCCCCCn1c(-c2ccc(Br)cc2)csc1=Nc1ccccc1	4.84
CCc1c(-c2ccc(OC)cc2)c(=O)oc2cc(O)ccc12	> 100
COc1ccc2c(c1)[C@@H]1c3cc(OC)c(OC)cc3CCN1CCC2	> 100
CCN(CC)CCn1ncc2c3c(=O)c4cccnc4n(CCN(CC)CC)c3ccc21	> 10

The molecules below were run on SK-OV-3 ovarian (assay: NCI tumour cell line growth inhibition, 48 h).

SMILES	TGI [µM]
NCCCCCCn1c(-c2ccc(Br)cc2)csc1=Nc1ccccc1	31.1
CCN(CC)CCn1ncc2c3c(=O)c4cccnc4n(CCN(CC)CC)c3ccc21	> 10
COC(=O)[C@@H]1C[C@@]23CCCN4CC[C@@]5(c6cccc(OC)c6N(C=O)[C@]15CC2)[C@@H]43	> 100

These molecules were tested on OVCAR-5 ovarian (assay: NCI tumour cell line growth inhibition, 48 h).

SMILES	TGI [µM]
NCCCCCCn1c(-c2ccc(Br)cc2)csc1=Nc1ccccc1	24.6
CCc1c(-c2ccc(OC)cc2)c(=O)oc2cc(O)ccc12	> 100
COc1ccc2c(c1)[C@@H]1c3cc(OC)c(OC)cc3CCN1CCC2	> 100
CCN(CC)CCn1ncc2c3c(=O)c4cccnc4n(CCN(CC)CC)c3ccc21	> 10
COC(=O)[C@@H]1C[C@@]23CCCN4CC[C@@]5(c6cccc(OC)c6N(C=O)[C@]15CC2)[C@@H]43	> 100

These molecules were tested on M14 melanoma (assay: NCI tumour cell line growth inhibition, 48 h).

SMILES	TGI [µM]
NCCCCCCn1c(-c2ccc(Br)cc2)csc1=Nc1ccccc1	3.17
CCc1c(-c2ccc(OC)cc2)c(=O)oc2cc(O)ccc12	56.8
COc1ccc2c(c1)[C@@H]1c3cc(OC)c(OC)cc3CCN1CCC2	> 100
CCN(CC)CCn1ncc2c3c(=O)c4cccnc4n(CCN(CC)CC)c3ccc21	> 10
COC(=O)[C@@H]1C[C@@]23CCCN4CC[C@@]5(c6cccc(OC)c6N(C=O)[C@]15CC2)[C@@H]43	> 100

What follows are molecules tested on NCI-H226 lung (assay: NCI tumour cell line growth inhibition, 48 h).

SMILES	TGI [µM]
NCCCCCCn1c(-c2ccc(Br)cc2)csc1=Nc1ccccc1	39.5
CCc1c(-c2ccc(OC)cc2)c(=O)oc2cc(O)ccc12	> 100
CCN(CC)CCn1ncc2c3c(=O)c4cccnc4n(CCN(CC)CC)c3ccc21	> 10
COC(=O)[C@@H]1C[C@@]23CCCN4CC[C@@]5(c6cccc(OC)c6N(C=O)[C@]15CC2)[C@@H]43	> 100

The molecules below were run on LOX IMVI melanoma (assay: NCI tumour cell line growth inhibition, 48 h).

SMILES	TGI [µM]
NCCCCCCn1c(-c2ccc(Br)cc2)csc1=Nc1ccccc1	13.1
CCc1c(-c2ccc(OC)cc2)c(=O)oc2cc(O)ccc12	> 100
COc1ccc2c(c1)[C@@H]1c3cc(OC)c(OC)cc3CCN1CCC2	> 100
CCN(CC)CCn1ncc2c3c(=O)c4cccnc4n(CCN(CC)CC)c3ccc21	> 10
